Measured values from paper PMC7241567 (Journal of Enzyme Inhibition and Medicinal Chemistry, 2020).
Numbering of substitutions follows the chain as printed. Entries after “also recorded” stand apart in the source; their conditions may differ.

Columns and labels:
Format in all cases: biochemical
[1] = target: T1, FLT3 (D835Y) (Homo sapiens, UniProt P36888, D835Y); assay: Enzymatic activity against FLT3 mutants
T1 construct: purchased Reaction Biology Corp. (Kinase HotSpot service)
T1 sequence (P36888 27-993 D835Y): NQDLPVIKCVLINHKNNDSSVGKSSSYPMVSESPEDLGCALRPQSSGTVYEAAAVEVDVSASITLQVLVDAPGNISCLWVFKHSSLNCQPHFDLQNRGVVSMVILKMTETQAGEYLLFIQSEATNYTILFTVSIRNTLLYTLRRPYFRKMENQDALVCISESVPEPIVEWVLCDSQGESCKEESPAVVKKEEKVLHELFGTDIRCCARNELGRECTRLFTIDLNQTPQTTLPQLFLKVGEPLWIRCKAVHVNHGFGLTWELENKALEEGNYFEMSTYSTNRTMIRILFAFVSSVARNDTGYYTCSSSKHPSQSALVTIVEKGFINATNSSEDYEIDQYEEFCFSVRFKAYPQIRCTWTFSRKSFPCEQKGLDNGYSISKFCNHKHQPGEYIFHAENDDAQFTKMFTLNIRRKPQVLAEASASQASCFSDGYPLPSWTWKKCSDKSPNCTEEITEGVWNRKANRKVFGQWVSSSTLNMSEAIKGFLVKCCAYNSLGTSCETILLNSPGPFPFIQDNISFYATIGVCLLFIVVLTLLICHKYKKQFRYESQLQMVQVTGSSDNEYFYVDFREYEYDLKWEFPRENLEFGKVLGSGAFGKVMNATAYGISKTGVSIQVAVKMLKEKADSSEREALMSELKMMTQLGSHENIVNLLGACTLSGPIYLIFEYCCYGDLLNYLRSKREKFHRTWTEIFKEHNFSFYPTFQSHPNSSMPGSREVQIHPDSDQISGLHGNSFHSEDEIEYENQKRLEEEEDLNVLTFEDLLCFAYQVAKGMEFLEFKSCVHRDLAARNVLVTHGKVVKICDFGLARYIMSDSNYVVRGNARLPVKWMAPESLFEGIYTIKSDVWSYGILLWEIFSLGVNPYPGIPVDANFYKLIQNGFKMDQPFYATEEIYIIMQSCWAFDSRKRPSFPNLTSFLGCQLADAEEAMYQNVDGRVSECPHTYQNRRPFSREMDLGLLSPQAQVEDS

[2] = target: T2, SYK (Homo sapiens, UniProt P43405); assay: Reaction Biology Kinase HotSpot radiometric kinase assay
T2 construct: purchased Reaction Biology Corp. (Kinase HotSpot service)

[3] = target: T3, ABL1 (Homo sapiens, UniProt P00519); assay: as above
T3 construct: purchased Reaction Biology Corp. (Kinase HotSpot service)

[4] = target: T4, FLT3 (Homo sapiens, UniProt P36888); assay: as above
T4 construct: purchased Reaction Biology Corp. (Kinase HotSpot service)
T4 sequence (P36888 27-993): T1 sequence (P36888 27-993 D835Y) with Y809D

[5] = target: T5, KDR/VEGFR2 (Homo sapiens, UniProt P35968); assay: as above
T5 construct: purchased Reaction Biology Corp. (Kinase HotSpot service)

[6] = target: T6, AXL (R499C) (Homo sapiens, UniProt P30530, R499C); assay: as above
T6 construct: purchased Reaction Biology Corp. (Kinase HotSpot service)

[7] = target: T7, FYN (Homo sapiens, UniProt P06241); assay: as above
T7 construct: purchased Reaction Biology Corp. (Kinase HotSpot service)

[8] = target: T8, PLK1 (Homo sapiens, UniProt P53350); assay: as above
T8 construct: purchased Reaction Biology Corp. (Kinase HotSpot service)

[9] = target: T9, CDK4/cyclin D1 (Homo sapiens, UniProt P11802); assay: as above
T9 construct: purchased Reaction Biology Corp. (Kinase HotSpot service)
T9 sequence (P11802 whole entry): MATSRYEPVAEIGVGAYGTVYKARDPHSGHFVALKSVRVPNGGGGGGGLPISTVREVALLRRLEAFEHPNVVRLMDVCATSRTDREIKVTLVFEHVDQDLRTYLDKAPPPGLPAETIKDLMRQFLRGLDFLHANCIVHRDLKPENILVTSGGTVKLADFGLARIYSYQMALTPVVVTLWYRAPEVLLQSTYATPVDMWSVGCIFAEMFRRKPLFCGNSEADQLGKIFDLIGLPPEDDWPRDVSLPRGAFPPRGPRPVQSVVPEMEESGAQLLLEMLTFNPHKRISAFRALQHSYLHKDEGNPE
T9 sequence (P24385 whole entry partner): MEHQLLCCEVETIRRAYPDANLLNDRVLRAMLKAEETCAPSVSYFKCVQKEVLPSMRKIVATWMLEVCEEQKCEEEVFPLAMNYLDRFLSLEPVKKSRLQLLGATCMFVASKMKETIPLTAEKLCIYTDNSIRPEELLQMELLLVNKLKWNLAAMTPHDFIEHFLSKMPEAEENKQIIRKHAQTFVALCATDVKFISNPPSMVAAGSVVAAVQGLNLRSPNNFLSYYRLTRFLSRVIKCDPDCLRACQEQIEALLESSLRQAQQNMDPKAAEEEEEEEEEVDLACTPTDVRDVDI

T5 sequence (P35968 20-1356): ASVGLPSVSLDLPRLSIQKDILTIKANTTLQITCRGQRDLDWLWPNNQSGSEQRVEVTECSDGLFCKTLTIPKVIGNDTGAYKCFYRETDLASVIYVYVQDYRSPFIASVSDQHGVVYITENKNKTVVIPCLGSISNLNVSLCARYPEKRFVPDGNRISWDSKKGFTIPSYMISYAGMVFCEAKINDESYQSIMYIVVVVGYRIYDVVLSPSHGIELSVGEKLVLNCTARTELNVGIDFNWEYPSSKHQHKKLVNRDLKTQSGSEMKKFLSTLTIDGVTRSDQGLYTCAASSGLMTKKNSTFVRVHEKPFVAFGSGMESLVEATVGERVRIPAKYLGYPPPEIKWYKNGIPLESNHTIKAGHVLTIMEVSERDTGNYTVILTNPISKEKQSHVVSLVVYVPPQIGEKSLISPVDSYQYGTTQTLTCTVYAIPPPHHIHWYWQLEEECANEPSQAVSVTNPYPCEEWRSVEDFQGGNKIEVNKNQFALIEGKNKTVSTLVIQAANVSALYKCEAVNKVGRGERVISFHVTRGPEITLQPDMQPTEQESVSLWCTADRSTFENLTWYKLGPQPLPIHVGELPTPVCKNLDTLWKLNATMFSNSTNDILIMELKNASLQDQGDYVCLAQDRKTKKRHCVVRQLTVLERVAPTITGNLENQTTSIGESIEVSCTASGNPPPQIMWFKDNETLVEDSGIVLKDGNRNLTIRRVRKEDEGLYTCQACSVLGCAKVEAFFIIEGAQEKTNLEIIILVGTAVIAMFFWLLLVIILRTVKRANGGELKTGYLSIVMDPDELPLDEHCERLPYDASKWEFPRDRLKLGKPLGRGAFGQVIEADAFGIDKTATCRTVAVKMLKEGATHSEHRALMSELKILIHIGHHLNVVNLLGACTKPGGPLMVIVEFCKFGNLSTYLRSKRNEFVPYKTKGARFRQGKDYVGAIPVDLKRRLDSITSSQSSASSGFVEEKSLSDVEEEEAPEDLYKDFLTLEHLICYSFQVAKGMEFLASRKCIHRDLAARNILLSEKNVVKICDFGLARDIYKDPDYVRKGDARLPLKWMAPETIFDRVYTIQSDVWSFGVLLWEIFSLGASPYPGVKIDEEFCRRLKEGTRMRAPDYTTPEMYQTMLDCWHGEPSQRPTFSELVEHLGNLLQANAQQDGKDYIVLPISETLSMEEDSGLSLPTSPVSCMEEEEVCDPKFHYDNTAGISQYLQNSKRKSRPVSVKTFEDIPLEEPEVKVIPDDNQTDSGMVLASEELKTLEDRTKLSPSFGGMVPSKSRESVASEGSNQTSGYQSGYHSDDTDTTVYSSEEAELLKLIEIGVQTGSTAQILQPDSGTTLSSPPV
T8 sequence (P53350 whole entry): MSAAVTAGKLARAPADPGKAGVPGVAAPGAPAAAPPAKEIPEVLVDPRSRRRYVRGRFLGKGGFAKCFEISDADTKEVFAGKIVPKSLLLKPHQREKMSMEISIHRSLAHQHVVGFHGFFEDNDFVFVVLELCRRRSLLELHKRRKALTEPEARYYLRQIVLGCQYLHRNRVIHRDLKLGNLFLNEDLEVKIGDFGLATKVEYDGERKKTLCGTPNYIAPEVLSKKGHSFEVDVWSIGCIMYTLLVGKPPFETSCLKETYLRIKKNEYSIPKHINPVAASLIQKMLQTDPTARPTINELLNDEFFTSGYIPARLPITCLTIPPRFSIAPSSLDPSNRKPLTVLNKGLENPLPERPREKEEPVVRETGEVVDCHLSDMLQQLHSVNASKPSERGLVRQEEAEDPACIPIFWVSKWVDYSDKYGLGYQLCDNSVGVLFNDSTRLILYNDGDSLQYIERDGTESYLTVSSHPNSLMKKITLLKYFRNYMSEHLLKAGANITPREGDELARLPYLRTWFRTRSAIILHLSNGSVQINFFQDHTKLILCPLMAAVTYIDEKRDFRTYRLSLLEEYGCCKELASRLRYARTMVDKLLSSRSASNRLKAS
T3 sequence (P00519 whole entry): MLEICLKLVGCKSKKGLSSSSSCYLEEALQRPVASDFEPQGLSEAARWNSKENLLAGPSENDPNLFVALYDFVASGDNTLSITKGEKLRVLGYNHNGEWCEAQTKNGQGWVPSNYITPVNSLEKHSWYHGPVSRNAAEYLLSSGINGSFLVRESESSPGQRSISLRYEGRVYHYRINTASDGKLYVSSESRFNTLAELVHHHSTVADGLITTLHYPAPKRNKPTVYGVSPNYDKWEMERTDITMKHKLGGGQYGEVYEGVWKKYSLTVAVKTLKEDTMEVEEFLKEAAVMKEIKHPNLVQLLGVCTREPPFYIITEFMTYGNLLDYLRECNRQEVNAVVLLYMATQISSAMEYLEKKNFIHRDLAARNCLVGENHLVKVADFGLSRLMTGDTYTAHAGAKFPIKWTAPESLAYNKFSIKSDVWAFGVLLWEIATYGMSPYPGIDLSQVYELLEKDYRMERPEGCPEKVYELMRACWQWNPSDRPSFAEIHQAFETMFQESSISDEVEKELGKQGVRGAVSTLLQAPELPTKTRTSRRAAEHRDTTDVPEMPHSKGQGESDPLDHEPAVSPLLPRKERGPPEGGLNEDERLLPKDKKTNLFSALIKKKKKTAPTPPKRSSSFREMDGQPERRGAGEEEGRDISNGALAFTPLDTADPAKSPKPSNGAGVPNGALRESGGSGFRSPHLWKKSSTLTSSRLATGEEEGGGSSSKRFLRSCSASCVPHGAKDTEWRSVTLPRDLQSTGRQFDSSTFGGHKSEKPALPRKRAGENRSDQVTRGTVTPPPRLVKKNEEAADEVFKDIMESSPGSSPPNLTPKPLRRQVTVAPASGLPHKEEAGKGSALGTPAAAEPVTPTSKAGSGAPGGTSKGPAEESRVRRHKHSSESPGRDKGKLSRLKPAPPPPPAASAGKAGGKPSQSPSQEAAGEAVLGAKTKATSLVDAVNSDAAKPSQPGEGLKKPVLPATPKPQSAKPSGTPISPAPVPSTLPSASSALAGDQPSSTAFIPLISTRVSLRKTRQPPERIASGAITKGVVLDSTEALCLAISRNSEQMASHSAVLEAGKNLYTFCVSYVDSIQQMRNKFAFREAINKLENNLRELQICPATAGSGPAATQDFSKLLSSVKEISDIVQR
T7 sequence (P06241 whole entry): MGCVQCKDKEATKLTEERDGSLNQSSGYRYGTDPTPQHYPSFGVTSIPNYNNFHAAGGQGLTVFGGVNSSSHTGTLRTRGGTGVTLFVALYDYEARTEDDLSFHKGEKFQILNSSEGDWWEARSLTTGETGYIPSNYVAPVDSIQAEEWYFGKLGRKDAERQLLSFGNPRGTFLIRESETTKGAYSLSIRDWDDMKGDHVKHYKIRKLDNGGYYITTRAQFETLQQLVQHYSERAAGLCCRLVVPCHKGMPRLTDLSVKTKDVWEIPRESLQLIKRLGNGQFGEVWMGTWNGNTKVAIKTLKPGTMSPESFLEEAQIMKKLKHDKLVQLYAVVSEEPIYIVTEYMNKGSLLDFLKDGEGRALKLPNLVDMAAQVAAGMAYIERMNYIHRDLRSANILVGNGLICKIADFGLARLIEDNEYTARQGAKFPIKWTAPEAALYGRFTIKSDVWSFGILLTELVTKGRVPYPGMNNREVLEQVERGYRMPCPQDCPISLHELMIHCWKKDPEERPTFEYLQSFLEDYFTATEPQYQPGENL
T6 sequence (P30530 26-894 R499C): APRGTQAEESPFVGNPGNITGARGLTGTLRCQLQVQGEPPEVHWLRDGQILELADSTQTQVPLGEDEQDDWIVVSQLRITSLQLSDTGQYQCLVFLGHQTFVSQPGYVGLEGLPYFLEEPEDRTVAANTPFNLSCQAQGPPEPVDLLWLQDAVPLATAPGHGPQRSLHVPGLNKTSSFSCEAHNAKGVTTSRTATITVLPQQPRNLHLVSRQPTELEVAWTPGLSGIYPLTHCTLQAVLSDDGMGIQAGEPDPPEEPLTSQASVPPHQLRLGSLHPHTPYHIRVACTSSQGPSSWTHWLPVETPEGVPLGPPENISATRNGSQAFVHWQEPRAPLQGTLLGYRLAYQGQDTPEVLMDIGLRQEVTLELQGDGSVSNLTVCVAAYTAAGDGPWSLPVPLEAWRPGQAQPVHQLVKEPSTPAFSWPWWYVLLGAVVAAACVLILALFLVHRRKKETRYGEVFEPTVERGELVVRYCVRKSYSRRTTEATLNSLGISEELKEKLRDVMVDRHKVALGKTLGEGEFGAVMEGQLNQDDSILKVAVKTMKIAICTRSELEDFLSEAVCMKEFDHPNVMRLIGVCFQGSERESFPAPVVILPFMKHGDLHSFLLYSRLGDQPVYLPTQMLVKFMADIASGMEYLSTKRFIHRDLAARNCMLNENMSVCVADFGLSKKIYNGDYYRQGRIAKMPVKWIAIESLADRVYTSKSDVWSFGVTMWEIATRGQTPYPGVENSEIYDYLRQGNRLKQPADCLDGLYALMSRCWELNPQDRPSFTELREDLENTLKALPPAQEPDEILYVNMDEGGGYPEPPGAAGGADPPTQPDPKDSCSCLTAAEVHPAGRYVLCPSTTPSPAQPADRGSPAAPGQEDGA

For `Cc1oncc1C(=O)Nc1ccc2cnc(-c3cc(N4CCN(C)CC4)cc(C(F)(F)F)c3)nc2c1` [Compound 7d, 5-methyl-N-(2-(3-(4-methylpiperazin-1-yl)-5-(trifluoromethyl)phenyl)quinazolin-7-yl)isoxazole-4-carboxamide], the “decrease of activity against FLT3-TKD (D835Y) compared to FLT3 wild type” value [1] was “about 2 fold”, the IC50 ([1]; FLT3 (D835Y)) was 228 nM and the IC50 ([1]; FLT3-TKD (D835Y)) was 228 nM. For the same compound, the inhibition at 10 µM [2] was 22.4%, the inhibition at 10 µM [3] was 6.46% and the inhibition at 10 µM [4] was 96.6%. For the same compound, the “inhibitory activity towards FLT3 (in words)” value [4] was “maintained the activity; also recorded: maintained inhibitory activity”, the IC50 ([4]; FLT3 wild type, read-out: IC50 against FLT3) was 106 nM and the inhibition at 10 µM [5] was 16.8%. The inhibition at 10 µM [6] was 10.1%, the inhibition at 10 µM [7] was 19% and the inhibition at 10 µM [8] was 0%. For the same compound, the inhibition at 10 µM [9] was 3.01%.
